Assay results published in patent US20220289698A1, “INHIBITORS OF HUMAN ATGL” (Karl-Franzens-Universität Graz, priority 2019, published 2022).
Like-named read-outs stand apart in the source and are kept apart here.

Key:
[1] = target: T1, human ATGL (Homo sapiens, UniProt Q96AD5); test: TG hydrolase activity, Expi cell lysates expressing human ATGL + CGI-58, radiolabelled triolein; format: biochemical
T1 construct: made in house; host or cells: Expi cells (lysate, not purified)
T1 sequence (Q96AD5 1-504): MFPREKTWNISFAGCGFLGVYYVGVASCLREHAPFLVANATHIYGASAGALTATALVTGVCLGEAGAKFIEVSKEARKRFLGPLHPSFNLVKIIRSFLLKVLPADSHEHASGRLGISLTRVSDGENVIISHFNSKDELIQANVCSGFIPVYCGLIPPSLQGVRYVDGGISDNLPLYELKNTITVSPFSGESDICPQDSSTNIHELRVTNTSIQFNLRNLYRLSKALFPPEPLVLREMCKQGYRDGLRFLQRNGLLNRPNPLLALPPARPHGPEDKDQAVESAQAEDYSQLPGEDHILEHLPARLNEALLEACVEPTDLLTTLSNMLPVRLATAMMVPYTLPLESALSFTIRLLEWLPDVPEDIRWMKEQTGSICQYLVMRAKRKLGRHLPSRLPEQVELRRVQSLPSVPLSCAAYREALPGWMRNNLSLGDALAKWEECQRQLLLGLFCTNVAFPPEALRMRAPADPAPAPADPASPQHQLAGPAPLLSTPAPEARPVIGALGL
Method: (§1) Triglyceride (TG) hydrolase activity was measured as previously described (Schweiger M et al., Methods in Enzymology, 2014, 538:171-93). In brief, TG hydrolase activity was determined by adding recombinant purified CGI-58 to Expi cell lysates expressing human ATGL. For determination of cross-species reactivity Expi lysates expressing ATGL from different model organisms (e.g. mouse, rat, rhesus monkey, goat, etc.) were used. Samples were incubated with DMSO (carrier) or increasing concentrations of ATGL inhibitors dissolved in DMSO. TG substrate was prepared by emulsifying 330 μM radiolabelled triolein (40,000 c.p.m./nmol) and 45 μM phosphatidylcholine/phosphatidylinositol (3:1) in 100 mM potassium phosphate buffer (pH 7.0) by sonication and adjusting to 5% essentially FA-free BSA. TG substrate was added to the reaction mixture and incubated for 1 h at 37° C. in the water bath. The reaction was terminated by adding methanol/chloroform/heptane (10:9:7) and 0.1 M potassium carbonate with 0.1 M boric acid (pH 10.5). After centrifugation at 800 g for 15 min the radioactivity in the upper phase was determined by liquid scintillation counting and the rate of FA hydrolysis was calculated. IC50 values were determined as inhibitor concentration capable of inhibiting TG hydrolase activity by 50% as compared to DMSO control. Samples were measured as duplicates. The determination of IC50 values for human ATGL is illustrated in FIG. 1.

[2] = target: T2, murine ATGL (Mus musculus, UniProt Q8BJ56); test: TG hydrolase activity, Expi lysates expressing mouse ATGL + CGI-58, radiolabelled triolein; format: biochemical
T2 construct: made in house; host or cells: Expi cells (lysate)
T2 sequence (Q8BJ56 1-486): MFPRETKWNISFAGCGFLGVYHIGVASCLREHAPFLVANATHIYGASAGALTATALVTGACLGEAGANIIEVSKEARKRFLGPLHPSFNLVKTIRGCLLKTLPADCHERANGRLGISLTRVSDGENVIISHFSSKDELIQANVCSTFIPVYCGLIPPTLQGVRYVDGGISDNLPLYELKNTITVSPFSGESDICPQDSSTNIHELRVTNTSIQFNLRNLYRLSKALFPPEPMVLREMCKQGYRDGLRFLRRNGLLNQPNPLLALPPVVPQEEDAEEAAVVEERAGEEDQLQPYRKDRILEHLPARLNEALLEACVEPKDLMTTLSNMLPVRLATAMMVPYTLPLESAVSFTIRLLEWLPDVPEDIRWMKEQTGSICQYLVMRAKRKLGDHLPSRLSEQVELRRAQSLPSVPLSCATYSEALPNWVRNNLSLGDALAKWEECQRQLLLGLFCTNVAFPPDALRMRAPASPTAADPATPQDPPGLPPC
Method: as §1
Lysates from Expi cells overexpressing ATGL from mouse (Mus musculus) were incubated with recombinant purified ATGL co-activator CGI-58 and ATGL inhibitors at 50 μM. Subsequently, substrate containing radiolabeled triolein was added and liberated FA were extracted and quantified by liquid scintillation. Inhibitors were dissolved in DMSO which was used as control. Samples were measured in triplicates.

[3] = Example 237, read-out: Inhibition of human ATGL − IC50
[4] = 50 μM compound, Example 237, read-out: Inhibition of murine ATGL at 50 μM − mean [%]

SMILES	IC50 [1, 3] [µM]	inhibition at 50 µM [2, 4] [%]	inhibition at 50 µM ([2]; 50 μM, overview table, read-out: mouse ATGL inhibition [% inhibition at 50 μM]) [%]	IC50 ([1]; Example 238, read-out: Inhibition of human ATGL IC50) [µM]	inhibition at 50 µM ([2]; 50 μM, Example 238, read-out: % Inhibition of murine ATGL at 50 μM) [%]
CCOC(=O)c1csc(-c2ccc(N(C)C)cc2)n1 [Example 103, Ethyl 2-(4-(dimethylamino)phenyl)thiazole-4-carboxylate]	25	33.9			
CCOC(=O)c1csc(-c2ccc(OCC(C)C)cc2)n1 [Example 104, Ethyl 2-(4-isobutoxyphenyl)thiazole-4-carboxylate]	12	0			
CCOC(=O)c1csc(-c2ccc(OC(C)C)cc2)n1 [Example 106, Ethyl 2-(4-isopropoxyphenyl)thiazole-4-carboxylate]	5	21.6			
CCOC(=O)c1csc(-c2ccc(OCC(F)(F)F)cc2)n1 [Example 108, Ethyl 2-(4-(2,2,2-trifluoroethoxy)phenyl)thiazole-4-carboxylate]	5	8			
CCCCOc1ccc(-c2nc(C(=O)OCC)cs2)cc1 [Example 109, Ethyl 2-(4-butoxyphenyl)thiazole-4-carboxylate]	10	0			
CCCCCOc1ccc(-c2nc(C(=O)OCC)cs2)cc1 [Example 110, Ethyl 2-(4-(pentyloxy)phenyl)thiazole-4-carboxylate]	25	0			
CCCCCCOc1ccc(-c2nc(C(=O)OCC)cs2)cc1 [Example 111, Ethyl 2-(4-(hexyloxy)phenyl)thiazole-4-carboxylate]	25	0			
CCOC(=O)c1csc(-c2ccc(OC(C)CC)cc2)n1 (stereo not shown) [Example 112, Ethyl 2-(4-(sec-butoxy)phenyl)thiazole-4-carboxylate]	10	1.3			
C=CCOc1ccc(-c2nc(C(=O)OCC)cs2)cc1 [Example 113, Ethyl 2-(4-(allyloxy)phenyl)thiazole-4-carboxylate]	6	24.6			
CCOc1ccc(-c2nc(C(=O)OC(C)CC)cs2)cc1 (stereo not shown) [Example 114, sec-Butyl 2-(4-ethoxyphenyl)thiazole-4-carboxylate]	3	7			
CCOc1ccc(-c2nc(C(=O)OCC(F)(F)F)cs2)cc1 [Example 116, 2,2,2-Trifluoroethyl 2-(4-ethoxyphenyl)thiazole-4-carboxylate]	12	0			
CCCC(C)OC(=O)c1csc(-c2ccc(OCC)cc2)n1 (stereo not shown) [Example 117, Pentan-2-yl 2-(4-ethoxyphenyl)thiazole-4-carboxylate]	3	7.4			
CCOc1ccc(-c2nc(C(=O)OC(C)(C)CC)cs2)cc1 [Example 118, tert-Pentyl 2-(4-ethoxyphenyl)thiazole-4-carboxylate]	25	0			
C/C=C/COC(=O)c1csc(-c2ccc(OCC)cc2)n1 [Example 121, (E)-but-2-en-1-yl 2-(4-ethoxyphenyl)thiazole-4-carboxylate]	12	41.2			
CCOc1ccc(-c2nc(C(=O)OC)cs2)cc1 [Example 122, Methyl 2-(4-ethoxyphenyl) thiazole-4-carboxylate]	8	2.1			
CCOc1ccc(-c2nc(C(=O)OC(C)C)cs2)cc1 [Example 123, Isopropyl 2-(4-ethoxyphenyl) thiazole-4-carboxylate]	3	10.6	20		
CCOC(=O)c1nc(-c2ccc(OCC)cc2)sc1C [Example 124, Ethyl 2-(4-ethoxyphenyl)-5-methylthiazole-4-carboxylate]	17	33.7			

SMILES	IC50 [1, 3] [µM]	inhibition at 50 µM [2, 4] [%]	inhibition at 50 µM ([2]; 50 μM, overview table, read-out: mouse ATGL inhibition [% inhibition at 50 μM]) [%]	IC50 ([1]; Example 238, read-out: Inhibition of human ATGL IC50) [µM]	inhibition at 50 µM ([2]; 50 μM, Example 238, read-out: % Inhibition of murine ATGL at 50 μM) [%]
CCOC(=O)c1nc(-c2ccc(OCC)cc2)sc1Cl [Example 125, Ethyl 5-chloro-2-(4-ethoxyphenyl)thiazole-4-carboxylate]	25	11.1			
CCOC(=O)c1nc(-c2ccc(OCC)cc2)sc1OC [Example 126, Ethyl 2-(4-ethoxyphenyl)-5-methoxythiazole-4-carboxylate]	5	2.2			
CCOc1ccc(-c2nc(C(=O)OC3CCCC3)cs2)cc1 [Example 127, Cyclopentyl 2-(4-ethoxyphenyl)thiazole-4-carboxylate]	5	0			
CCOc1ccc(-c2nc(C(=O)OC3CCC3)cs2)cc1 [Example 129, Cyclobutyl 2-(4-ethoxyphenyl)thiazole-4-carboxylate]	6	5.1			
CCOc1ccc(-c2nc(C(=O)OC3CCOC3)cs2)cc1 (stereo not shown) [Example 130, Tetrahydrofuran-3-yl 2-(4-ethoxyphenyl)thiazole-4-carboxylate]	3	13.9			
CCOc1ccc(-c2nc(C(=O)OC3CCCCC3)cs2)cc1 [Example 133, Cyclohexyl 2-(4-ethoxyphenyl)thiazole-4-carboxylate]	25	0			
CCOc1ccc(-c2nc(C(=O)OC(CF)CF)cs2)cc1 [Example 135, 1,3-Difluoropropan-2-yl 2-(4-ethoxyphenyl)thiazole-4-carboxylate]	3	5.8			
CCOc1ccc(-c2nc(C(=O)OCC3CC3)cs2)cc1 [Example 136, Cyclopropylmethyl 2-(4-ethoxyphenyl)thiazole-4-carboxylate]	20	9.8			
CCOc1ccc(-c2nc(C(=O)O[C@H]3CCC[C@H]3C)cs2)cc1 [Example 139, (1S,2R)-2-Methylcyclopentyl 2-(4-ethoxyphenyl)thiazole-4-carboxylate]	15	0			
CCOc1ccc(-c2nc(C(=O)OCC=C(C)C)cs2)cc1 [Example 143, 3-Methylbut-2-en-1-yl 2-(4-ethoxyphenyl)thiazole-4-carboxylate]	20	16.8			
C=CCOC(=O)c1csc(-c2ccc(OCC)cc2)n1 [Example 147, Allyl 2-(4-ethoxyphenyl)thiazole-4-carboxylate]	3	30			
CCOc1ccc(-c2nc(C(=O)OC(C)(C)C)cs2)cc1 [Example 150, tert-Butyl 2-(4-ethoxyphenyl)thiazole-4-carboxylate]	5	6.3			
CCOc1ccc(-c2nc(C(=O)OC3CC3)cs2)cc1 [Example 151, Cyclopropyl 2-(4-ethoxyphenyl)thiazole-4-carboxylate]	2.5	12.1			
CCOc1ccc(-c2nc(C(=O)OCc3ccco3)cs2)cc1 [Example 153, Furan-2-ylmethyl 2-(4-ethoxyphenyl)thiazole-4-carboxylate]	5	42.2			
CCOc1ccc(-c2nc(C(=O)OC(C)C)c(OC(C)C)s2)cc1 [Example 177]	25	0			
C#CCC(C)OC(=O)c1csc(-c2ccc(OCC)cc2)n1 (stereo not shown) [Example 208, Pont-4-yn-2-yl 2-(4-ethoxyphenyl)thiazole-4-carboxylate]				10	59
